Where a SMILES comes first, the peptide text is derived from it. Bridges are numbered along the chain shown (N, C = ends). [ ]: non-standard residue; d: D form. The star is where a group is joined. hPhe(3-Cl-4-CF3) = N[C@@H](CCc1ccc(C(F)(F)F)c(Cl)c1)C(=O)O; NPrPhe(4-CF3) = CCCN[C@@H](Cc1ccc(C(F)(F)F)cc1)C(=O)O; NMePhe(4-Me) = CN[C@@H](Cc1ccc(C)cc1)C(=O)O; NMeGly(cPent) = CN[C@H](C(=O)O)C1CCCC1; Ac4c(3,3-Me2) = CC1(C)CC(N)(C(=O)O)C1; NMeI = CC[C@H](C)[C@H](NC)C(=O)O; NMeD = CN[C@@H](CC(=O)O)C(=O)O; NMeL = CN[C@@H](CC(C)C)C(=O)O; Morpholide = C1CN(*)CCO1; NMeA = CN[C@@H](C)C(=O)O; Ac5c = NC1(C(=O)O)CCCC1; Aze = O=C(O)[C@@H]1CCN1; NEtG = CCNCC(=O)O; Sar = CNCC(=O)O
Experiments:
[1] = biological target: GDP-bound NRAS wild-type protein (Homo sapiens, UniProt P01111); experiment: Binding to NRAS by surface plasmon resonance (SPR), KD and KD ratio to KRAS
Method in brief: (§1)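 Each cycle, GDP-bound biotin-Avi RAS was captured (~100–300 RU), compound concentrations were injected low to high for 75 s each at 100 µL/min, then the chip was regenerated. Buffer: HBS pH 7.4, 10 mM MgCl2, 10 µM GDP, 1 mM DTT, 4% DMSO; 30°C. KD from a 1:1 binding model.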

[2] = test system: human lung cancer strain NCI-H441; assay type: cell-based
Method in brief: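 Signal came from […] measured per well once the reagent was added. Beforehand, cells were cultured at 37°C and 5% carbon dioxide on a compound series serially diluted in dimethyl sulfoxide.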

HRAS wild-type protein = HRAS wild-type protein (Homo sapiens, UniProt P01112); experiment: Binding to HRAS by surface plasmon resonance (SPR), KD and KD ratio to KRAS
Method in brief: as §1

[3] = ratio of the KD value with respect to GDP-bound NRAS wild-type protein to the KD value with respect to KRAS
[4] = ratio of the KD value with respect to HRAS wild-type protein to the KD value with respect to KRAS
[5] = ratio of KD for GDP-bound NRAS wild-type protein to KD for KRAS
[6] = ratio of KD for HRAS wild-type protein to KD for KRAS
[7] = ratio of KD value for GDP-bound NRAS wild-type protein to KD value for KRAS (SPR)
[8] = ratio of KD value for HRAS wild-type protein to KD value for KRAS (SPR)

Chain of GDP-bound NRAS wild-type protein (P01111 whole entry): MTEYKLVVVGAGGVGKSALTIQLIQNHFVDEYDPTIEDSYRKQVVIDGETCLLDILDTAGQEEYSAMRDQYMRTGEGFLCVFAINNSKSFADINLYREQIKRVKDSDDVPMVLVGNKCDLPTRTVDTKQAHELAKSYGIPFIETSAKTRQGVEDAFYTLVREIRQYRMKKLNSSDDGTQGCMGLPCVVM
Chain of HRAS wild-type protein (P01112 whole entry): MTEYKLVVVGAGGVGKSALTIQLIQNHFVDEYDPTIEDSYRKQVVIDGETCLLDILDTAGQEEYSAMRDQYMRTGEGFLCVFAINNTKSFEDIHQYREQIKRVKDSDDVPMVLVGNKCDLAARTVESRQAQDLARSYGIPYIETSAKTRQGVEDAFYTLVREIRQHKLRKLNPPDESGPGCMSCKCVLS

| SMILES | IC50 [2] [nM] | NRAS /KRAS [1, 3] | HRAS /KRAS (HRAS wild-type protein; [4]) | NRAS /KRAS [1, 5] | HRAS /KRAS (HRAS wild-type protein; [6]) | NRAS /KRAS [1, 7] | HRAS /KRAS (HRAS wild-type protein; [8]) |
| --- | --- | --- | --- | --- | --- | --- | --- |
| CCO[C@@H]1C[C@H]2C(=O)N(C)C3(CCC3)C(=O)N(C)[C@@H](C3CCCC3)C(=O)N(C)[C@H](C(=O)N(C)C)CC(=O)N(C)[C@@H](C3CC3)C(=O)N[C@@H]([C@@H](C)CC)C(=O)N(C)CC(=O)N(C)[C@H]3C/C=C\CCN(C3=O)[C@@H](Cc3ccc(C)cc3)C(=O)N(C)CC(=O)N[C@@H](CCc3cc(F)c(C(F)(F)F)c(F)c3)C(=O)N2C1 [PP1783] | 3.5 |  |  |  |  | A (a compound having 10 or more and less than 20 is denoted as A) | B (a compound having 3 or more and less than 10 is denoted as B) |
| CCCN(C)C(=O)[C@@H]1CC(=O)N(C)[C@@H](COCC)C(=O)N[C@@H]([C@@H](C)CC)C(=O)N(C)CC(=O)N(C)[C@H]2C/C=C\CCN(C2=O)[C@@H](Cc2ccc(C(F)(F)F)cc2)C(=O)N(C)CC(=O)N[C@@H](CCc2ccc(C(F)(F)F)c(OC)c2)C(=O)N2C[C@@H](C)C[C@H]2C(=O)NC2(CC(C)(C)C2)C(=O)N(C)[C@@H](C2CCCC2)C(=O)N1C [PP1991] | 10.8 | A (a compound having 10 or more and less than 20 is denoted as A) | A (a compound having 10 or more and less than 20 is denoted as A) |  |  |  |  |
| CCCN1C(=O)CN(C)C(=O)CN(C)C(=O)[C@H]([C@@H](C)OCC)NC(=O)[C@H](CC(C)C)N(C)C(=O)C[C@@H](C(=O)N2CCOCC2)N(C)C(=O)[C@H](C2CCCC2)N(C)C(=O)C2(CC(C)(C)C2)NC(=O)[C@@H]2CCCN2C(=O)[C@H](CCc2ccc(C(F)(F)F)c(Cl)c2)NC(=O)CN(C)C(=O)[C@@H]1Cc1ccc(C(F)(F)F)cc1 [PP1964] ([NMeL]T(Et)[Sar][Sar][NPrPhe(4-CF3)][Sar][hPhe(3-Cl-4-CF3)]P[Ac4c(3,3-Me2)][NMeGly(cPent)][NMeD]-Morpholide; lactam N-11) | 10.3 | B (a compound having 3 or more and less than 10 is denoted as B) | B (a compound having 3 or more and less than 10 is denoted as B) |  |  |  |  |
| CCCN(C)C(=O)[C@@H]1CC(=O)N(C)[C@@H](CCOC)C(=O)N[C@@H]([C@@H](C)CC)C(=O)N(C)CC(=O)N(C)[C@H]2C/C=C\CCN(C2=O)[C@@H](Cc2ccc(C(F)(F)F)cc2)C(=O)N(C)CC(=O)N[C@@H](CCc2ccc(C(F)(F)F)c(OC)c2)C(=O)N2C[C@H](OCC)C[C@H]2C(=O)NC2(CCC2)C(=O)N(C)[C@@H](C2CCCC2)C(=O)N1C [PP2018] | 5.3 | A (a compound having 10 or more and less than 20 is denoted as A) | B (a compound having 3 or more and less than 10 is denoted as B) |  |  |  |  |
| CCC[C@H]1C(=O)N[C@@H]([C@@H](C)CC)C(=O)N(C)CC(=O)N(C)[C@H]2C/C=C\CCN(C2=O)[C@@H](Cc2ccc(C(F)(F)F)cc2)C(=O)N(C)CC(=O)N[C@@H](CCc2cc(F)c(C(F)(F)F)c(F)c2)C(=O)N2C[C@H](OCC)C[C@H]2C(=O)NC2(CC(F)(F)C2)C(=O)N(C)[C@@H](C2CCCC2)C(=O)N(C)[C@H](C(=O)N(C)CC)CC(=O)N1C [PP1735] | 2.2 |  |  |  |  | AA (a compound having 20 or more is denoted as AA) | A (a compound having 10 or more and less than 20 is denoted as A) |
| CCO[C@@H]1C[C@H]2C(=O)NC3(CCC3)C(=O)N(C)[C@@H](C3CCCC3)C(=O)N(C)[C@H](C(=O)N(C)C)CC(=O)N(C)[C@@H](COC)C(=O)N[C@@H]([C@@H](C)CC)C(=O)N(C)CC(=O)N(C)[C@H]3CCCCCN(C3=O)[C@@H](Cc3ccc(C(F)(F)F)cc3)C(=O)N(C)CC(=O)N[C@@H](CCc3cc(F)c(C(F)(F)F)c(F)c3)C(=O)N2C1 [PP0674] | 13.9 | B (a compound having 3 or more and less than 10 is denoted as B) | B (a compound having 3 or more and less than 10 is denoted as B) |  |  |  |  |

Second part, led by results:

| IC50 [2] [nM] | SMILES | NRAS /KRAS [1, 3] | HRAS /KRAS (HRAS wild-type protein; [4]) | NRAS /KRAS [1, 5] | HRAS /KRAS (HRAS wild-type protein; [6]) | NRAS /KRAS [1, 7] | HRAS /KRAS (HRAS wild-type protein; [8]) |
| --- | --- | --- | --- | --- | --- | --- | --- |
| 17.4 | CCCN1C(=O)CN(C)C(=O)CN(C)C(=O)[C@H]([C@@H](C)CC)NC(=O)[C@H](CC(C)C)N(C)C(=O)C[C@@H](C(=O)N2CCOCC2)N(C)C(=O)[C@H]([C@@H](C)CC)N(C)C(=O)C2(CCCC2)NC(=O)[C@@H]2CCCN2C(=O)[C@H](CCc2ccc(C(F)(F)F)c(Cl)c2)NC(=O)CN(C)C(=O)[C@@H]1Cc1ccc(C(F)(F)F)cc1 [PP1926] ([NMeL]I[Sar][Sar][NPrPhe(4-CF3)][Sar][hPhe(3-Cl-4-CF3)]P[Ac5c][NMeI][NMeD]-Morpholide; lactam N-11) | B (a compound having 3 or more and less than 10 is denoted as B) | B (a compound having 3 or more and less than 10 is denoted as B) |  |  |  |  |
| 10.3 | CCCN(C)C(=O)[C@@H]1CC(=O)N(C)[C@@H](CC)C(=O)N[C@@H]([C@@H](C)CC)C(=O)N(C)CC(=O)N(C)[C@H]2C/C=C\CCN(C2=O)[C@@H](Cc2ccc(C(F)(F)F)cc2)C(=O)N(C)CC(=O)N[C@@H](CCc2cc(F)c(C(F)(F)F)c(F)c2)C(=O)N2C[C@H](OCC3CC3)C[C@H]2C(=O)NC2(CCC2)C(=O)N(C)[C@@H](C2CCCC2)C(=O)N1C [PP2913] |  |  | A (a compound having 10 or more and less than 20 is denoted as A) | A (a compound having 10 or more and less than 20 is denoted as A) |  |  |
| 8.3 | CC(C)C[C@H]1C(=O)N[C@@H](C2CCC2)C(=O)N(C)CC(=O)N(C)[C@H]2CCCCN(C2=O)[C@@H](Cc2ccc(C(F)(F)F)cc2)C(=O)N(C)CC(=O)N[C@@H](CCc2cc(F)c(C(F)(F)F)c(F)c2)C(=O)N2CCC[C@H]2C(=O)NC2(CCCC2)C(=O)N(C)[C@@H](C2CCCC2)C(=O)N(C)[C@H](C(=O)N2CCOCC2)CC(=O)N1C [PP0596] | B (a compound having 3 or more and less than 10 is denoted as B) | B (a compound having 3 or more and less than 10 is denoted as B) |  |  |  |  |
| 15.6 | C#CC[C@H]1C(=O)N[C@@H]([C@@H](C)CC)C(=O)N(C)CC(=O)N(C)[C@H]2C/C=C\CCN(C2=O)[C@@H](Cc2ccc(C(F)(F)F)cc2)C(=O)N(C)CC(=O)N[C@@H](CCc2cc(F)c(C(F)(F)F)c(F)c2)C(=O)N2C[C@@H](C)C[C@H]2C(=O)NC2(CC(C)(C)C2)C(=O)N(C)[C@@H](C2CCCC2)C(=O)N(C)[C@H](C(=O)N(C)CCC)CC(=O)N1C [PP2076] | A (a compound having 10 or more and less than 20 is denoted as A) | A (a compound having 10 or more and less than 20 is denoted as A) |  |  |  |  |
| 6.7 | CC[C@H](C)[C@@H]1NC(=O)[C@H](CC(C)C)N(C)C(=O)C[C@@H](C(=O)N2CCOCC2)N(C)C(=O)[C@H](C2CCCC2)N(C)C(=O)C2(CCCC2)NC(=O)[C@@H]2CCCN2C(=O)[C@H](CCc2ccc(C(F)(F)F)c(Cl)c2)NC(=O)CN(C)C(=O)[C@H](Cc2ccc(C)cc2)N(C)C(=O)CN(CC)C(=O)CN(C)C1=O [PP0019] ([NMeL]I[Sar][NEtG][NMePhe(4-Me)][Sar][hPhe(3-Cl-4-CF3)]P[Ac5c][NMeGly(cPent)][NMeD]-Morpholide; lactam N-11) |  |  | C (A compound having a KD ratio of 0.1 or more and less than 3 is denoted as C) | C (A compound having a KD ratio of 0.1 or more and less than 3 is denoted as C) |  |  |
| 17.8 | CCC[C@@H]1C[C@H]2C(=O)NC3(CC(C)(C)C3)C(=O)N(C)[C@@H](C3CCCC3)C(=O)N(C)[C@H](C(=O)N(C)C)CC(=O)N(C)[C@@H](CC)C(=O)N[C@@H]([C@@H](C)CC)C(=O)N(C)CC(=O)N(C)[C@H]3C/C=C\CCN(C3=O)[C@@H](Cc3ccc(C)cc3)C(=O)N(C)CC(=O)N[C@@H](CCc3cc(F)c(C(F)(F)F)c(F)c3)C(=O)N2C1 [PP2208] | A (a compound having 10 or more and less than 20 is denoted as A) | A (a compound having 10 or more and less than 20 is denoted as A) |  |  |  |  |
| 7.8 | CCCN1C(=O)[C@@H]2CCN2C(=O)[C@H](C)N(C)C(=O)[C@H]([C@@H](C)CC)NC(=O)[C@H](CC(C)C)N(C)C(=O)C[C@@H](C(=O)N2CCOCC2)N(C)C(=O)[C@H](C2CCCC2)N(C)C(=O)C2(CCCC2)NC(=O)[C@@H]2CCN2C(=O)[C@H](CCc2ccc(C(F)(F)F)c(Cl)c2)NC(=O)CN(C)C(=O)[C@@H]1Cc1ccc(C(F)(F)F)cc1 [PP0281] ([NMeL]I[NMeA][Aze][NPrPhe(4-CF3)][Sar][hPhe(3-Cl-4-CF3)][Aze][Ac5c][NMeGly(cPent)][NMeD]-Morpholide; lactam N-11) |  |  | C (A compound having a KD ratio of 0.1 or more and less than 3 is denoted as C) | C (A compound having a KD ratio of 0.1 or more and less than 3 is denoted as C) |  |  |
| 17.7 | CCO[C@@H]1C[C@H]2C(=O)NC3(CC(C)(C)C3)C(=O)N(C)[C@@H](C(CC)CC)C(=O)N(C)[C@H](C(=O)N3CCCC3)CC(=O)N(C)[C@@H](CC)C(=O)N[C@@H]([C@@H](C)CC)C(=O)N(C)CC(=O)N(C)[C@H]3C/C=C\CCN(C3=O)[C@@H](Cc3ccc(C)cc3)C(=O)N(C)CC(=O)N[C@@H](CCc3cc(F)c(C(F)(F)F)c(F)c3)C(=O)N2C1 [PP2149] | A (a compound having 10 or more and less than 20 is denoted as A) | A (a compound having 10 or more and less than 20 is denoted as A) |  |  |  |  |
